Data set [1] can be described thus: Size exclusion chromatography (SEC), self-assembly. The format is physicochemical. The following applies: Superdex200 Increase 10/300; independent of initial concentration. The procedure: SUPPORTING INFORMATION: Method Section.
Sex as a biological variable.
All peptides were ordered from WuXI AppTec (Shanghai, China) or TAG-Copenhagen […]
Protein expression and purification.
Full length rat PICK1 (pET41) was, as described earlier (1), expressed in BL21-DE3-pLysS and grown at 37 °C, induced at OD600= 0.6 with 1 mM IPTG, and grown for 16 hours at 20 °C.
Cultures were harvested and re-suspended in 50 mM Tris, 125 mM NaCl, 2 mM DTT (Sigma), 1% Triton X-100 (Sigma), 20 µg/mL DNAse 1 and half a tablet of cOmplete protease inhibitor cocktail (Roche) pr. 1 L culture. The resuspended pellets were frozen at -80 °C for later purification. The lysate was cleared by centrifugation (36,000 x g for 30 min at 4 °C), and the supernatant was incubated with Glutathione-Sepharose 4B beads (GE Healthcare) for two hours at 4 °C under gentle rotation and then centrifuged at 4000 x g for 5 min. The supernatant was removed, and the beads were washed twice in 35 mL 50 mM Tris, 125 mM NaCl, 2 mM DTT, and 0.01% Triton-X100. The beads were transferred to PD-10 Bio-Spin® Chromatography columns (Bio-Rad) and washed with an additional 3 column volumes. Each column was sealed and 0.075 U/µL, Novagen® was added for cleavage O/N at 4 °C under gentle rotation. PICK1 was eluted on ice and concentration was measured on a NanoDrop 3000. […]
Size Exclusion Chromatography (SEC). […]

Data set [2] is described as follows: Mass spectrometry biodistribution (plasma, CSF, spinal cord, brain). The format is in vivo, mouse. The procedure: K2 tubes at 5 min, 30 min, 1 hour, 5 hours, 12 hours, 24 hours, and 48 hours and centrifuged (app 4 ℃, 3200 g, 10 min) for collection of plasma. Plasma was transferred to 96 well plates and quick-frozen over dry ice and kept at -60 ℃ until LC-MS/MS analysis. For LC-MS/MS analysis plasma with 0.25% Triton X100 in 50% MeOH/water (6 µL) was quenched with 160 µL of IS1 (internal standard in MeOH (Labetalol & tolbutamide & Verapamil & dexamethasone & glyburide & Celecoxib 100 ng/mL for each)) and the mixture was vortexed for 10 min at 800 rpm and centrifuged for 15 min at 3220 × g at 4 ℃. […] Plasma half-lives were determined from three points in the elimination phase. In a separate experiment, biodistribution was assessed (plasma, CSF, spinal cord, whole brain) at two hours after single dose of 10 µmol/kg or one hour after last injection in the repeated administration paradigm (10 µmol/kg followed by four s.c. administrations of 2 µmol/kg with one hour between). […] Plasma, CSF, and tissue samples (kept at 4 ℃) were processed and analysed as described above.
Concentration 10 µmol/kg: Wild type mice were habituated to the experimental room for a minimum of 60 min before initiation of the experiment. […] A video camera placed above the open field recorded the animals’ behaviour and Ethovision XT 13 (Noldus) was used to track the distance travelled by the […]

As for `CCCCCCCCCCCCCC(=O)N(CCOCCOCCC(=O)N[C@@H](Cc1c[nH]cn1)C(=O)N[C@@H](Cc1c[nH]c2ccccc12)C(=O)N[C@@H](CC(C)C)C(=O)N[C@@H](CCCCN)C(=O)N[C@H](C(=O)O)C(C)C)CCOCCOCCC(=O)N[C@@H](Cc1c[nH]cn1)C(=O)N[C@@H](Cc1c[nH]c2ccccc12)C(=O)N[C@@H](CC(C)C)C(=O)N[C@@H](CCCCN)C(=O)N[C@H](C(=O)O)C(C)C` [mPD5, myristoyl-NPEG4-(HWLKV)2], the SEC elution volume result in data set [1] is “approximately 14.2 mL”. Further, in data set [2] (C57BL/6NRj, mouse, plasma, sc, 10 umol/kg, 1 hour after s.c. 10 μmol/kg, LLOQ = 2 ng/mL, n = 3), the level at 1 h came out at 3280 ± 615 ng/mL. In addition, the “detection in CSF, spinal cord, and brain tissue by mass spectrometry” value in data set [2] (after s.c. injection in mice) is “did not detect”.
